Experimental data reported in patent publication US8063071B2 (GlaxoSmithKline, LLC, priority 2007, dated 2011).
pIC50: −log10 of the molar value. Counter-ions that a name gives are not always drawn.

Columns and labels:
[1] = target: T1, Recombinant human IKKβ (residues 1-737) (Homo sapiens, UniProt O14920); test: IKK2 assay (TR-FRET); type: biochemical; details: ATP 1 μM final, read-out: pIC50 against IKK2 (converted)
T1 construct: Recombinant human IKKβ (residues 1-737); GST (C); made in house
T1 sequence (O14920 1-737): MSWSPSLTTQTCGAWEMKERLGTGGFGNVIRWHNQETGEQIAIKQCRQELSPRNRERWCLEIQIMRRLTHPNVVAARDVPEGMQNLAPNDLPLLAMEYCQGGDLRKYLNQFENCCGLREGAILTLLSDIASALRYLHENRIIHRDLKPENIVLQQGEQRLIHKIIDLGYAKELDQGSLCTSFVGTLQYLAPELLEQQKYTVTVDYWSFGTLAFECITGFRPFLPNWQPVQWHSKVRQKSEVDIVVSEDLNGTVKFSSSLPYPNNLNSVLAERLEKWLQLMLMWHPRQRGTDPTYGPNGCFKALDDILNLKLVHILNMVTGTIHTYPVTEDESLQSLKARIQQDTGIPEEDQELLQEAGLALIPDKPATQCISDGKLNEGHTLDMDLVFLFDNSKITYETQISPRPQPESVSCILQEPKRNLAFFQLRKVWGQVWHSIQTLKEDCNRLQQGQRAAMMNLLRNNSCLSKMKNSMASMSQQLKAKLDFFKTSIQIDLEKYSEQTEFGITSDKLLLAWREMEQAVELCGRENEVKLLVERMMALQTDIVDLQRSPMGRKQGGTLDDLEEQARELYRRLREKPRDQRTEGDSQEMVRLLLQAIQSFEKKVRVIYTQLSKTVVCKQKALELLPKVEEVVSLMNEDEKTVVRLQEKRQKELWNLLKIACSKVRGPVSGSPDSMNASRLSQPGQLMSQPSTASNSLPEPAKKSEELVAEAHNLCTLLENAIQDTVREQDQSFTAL
How it was run: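 Baculovirus-expressed C-terminal GST-tagged IKKβ (0.5-5 nM final) in HEPES pH 7.4, MgCl2, CHAPS, DTT, BSA with 1.7% DMSO; 25 nM GST-IB substrate and 1 μM ATP, 15 min at room temperature. EDTA stop; phospho-Ser32/36 detected by Eu-antibody/APC-anti-GST TR-FRET, 665/620 nm ratio.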

[2] = system: human monocyte stimulated cytokine production (TNF-α); test: Monocyte assay (LPS-stimulated TNF-α production); type: cell-based; details: for inhibition at 0.3 µM: read-out: inhibition at 300 nM in the monocyte assay; for pIC50: 24 h, 200 ng/mL LPS, TNF-α by ELISA
How it was run: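 Human CD14+ monocytes were purified from blood and plated at 1×10^6 cells/mL in RPMI 1640 with 10% FBS. Compound was added 30 min before stimulation with 200 ng/mL LPS (0.1% DMSO final), followed by 24 hrs at 37 C. Supernatant TNF-α was measured by ELISA, and viability by trypan blue exclusion.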

Row | SMILES | IC50 [1] | pIC50 [2] | inhibition at 0.3 µM [2]
1 | CC[C@H](C)CNCc1ccc(-c2cc(C(N)=O)c3[nH]cc(C4CCN(S(=O)(=O)CC)CC4)c3c2)s1 [Example 185, 3-[1-(ethylsulfonyl)-4-piperidinyl]-5-[5-({[(2S)-2-methylbutyl]amino}methyl)-2-thienyl]-1H-indole-7-carboxamide] | ≤ 10 µM |  | 0 to 60%
2 | CCNCc1ccc(-c2cc(C(N)=O)c3[nH]cc(C4CCN(S(=O)(=O)CC)CC4)c3c2)s1 [Example 168, 5-{5-[(ethylamino)methyl]-2-thienyl}-3-[1-(ethylsulfonyl)-4-piperidinyl]-1H-indole-7-carboxamide] | ≤ 10 µM | ≥ 5.82 | 
3 | CC[C@H](C)CNCc1cccc(-c2cc(C(N)=O)c3[nH]cc(C4CCN(S(=O)(=O)CC)CC4)c3c2)c1 [Example 310, 3-[1-(ethylsulfonyl)-4-piperidinyl]-5-[3-({[(2S)-2-methylbutyl]amino}methyl)phenyl]-1H-indole-7-carboxamide] | ≤ 10 µM | ≥ 5.82 | 
4 | CCS(=O)(=O)N1CCC(c2c[nH]c3c(C(N)=O)cc(-c4cc(F)cc(CN[C@@H](C)C(C)C)c4)cc23)CC1 [Example 314, 5-[3-({[(1S)-1,2-dimethylpropyl]amino}methyl)-5-fluorophenyl]-3-[1-(ethylsulfonyl)-4-piperidinyl]-1H-indole-7-carboxamide] | ≤ 10 µM | ≥ 5.82 | 
5 | CCS(=O)(=O)N1CCC(c2c[nH]c3c(C(N)=O)cc(-c4csc(CN(C)CC5CC5)c4)cc23)CC1 [Example 409, 5-(5-{[(cyclopropylmethyl)(methyl)amino]methyl}-3-thienyl)-3-[1-(ethylsulfonyl)-4-piperidinyl]-1H-indole-7-carboxamide trifluoroacetate] | ≤ 10 µM | ≥ 5.82 | 
6 | CCS(=O)(=O)N1CCC(c2c[nH]c3c(C(N)=O)cc(-c4csc(CN(C)CCS(=O)(=O)c5ccccc5)c4)cc23)CC1 [Example 45, 3-[1-(ethylsulfonyl)-4-piperidinyl]-5-[5-({methyl[2-(phenylsulfonyl)ethyl]amino}methyl)-3-thienyl]-1H-indole-7-carboxamide trifluoroacetate] | ≤ 10 µM |  | 0 to 60%
7 | CCS(=O)(=O)N1CCC(c2c[nH]c3c(C(N)=O)cc(-c4cccc(CNS(=O)(=O)c5ccccc5Cl)c4)cc23)CC1 [Example 374, 5-[3-({[(2-chlorophenyl)sulfonyl]amino}methyl)phenyl]-3-[1-(ethylsulfonyl)-4-piperidinyl]-1H-indole-7-carboxamide] | ≤ 10 µM | < 6.00 | 
8 | CCS(=O)(=O)N1CCC(c2c[nH]c3c(C(N)=O)cc(-c4cncc(CNC(C)C)c4)cc23)CC1 [Example 191, 3-[1-(ethylsulfonyl)-4-piperidinyl]-5-(5-{[(1-methylethyl)amino]methyl}-3-pyridinyl)-1H-indole-7-carboxamide] | ≤ 10 µM | ≥ 5.82 | 
9 | CCS(=O)(=O)N1CCC(c2c[nH]c3c(C(N)=O)cc(-c4cc(F)cc(CNCC5CCOCC5)c4)cc23)CC1 [Example 324, 3-[1-(ethylsulfonyl)-4-piperidinyl]-5-(3-fluoro-5-{[(tetrahydro-2H-pyran-4-ylmethyl)amino]methyl}phenyl)-1H-indole-7-carboxamide trifluoroacetate] | ≤ 10 µM | ≥ 5.82 | 
10 | CCC(CC)NCc1cccc(-c2cc(C(N)=O)c3[nH]cc(C4CCN(S(=O)(=O)CC)CC4)c3c2)c1 [Example 26, 5-(3-{[(1-ethylpropyl)amino]methyl}phenyl)-3-[1-(ethylsulfonyl)-4-piperidinyl]-1H-indole-7-carboxamide] | ≤ 10 µM | ≥ 5.82 | 
11 | CC[C@@H](C)NCc1cccc(-c2cc(C(N)=O)c3[nH]cc(C4CCN(S(=O)(=O)CC)CC4)c3c2)c1 [Example 155, 3-[1-(ethylsulfonyl)-4-piperidinyl]-5-[3-({[(1R)-1-methylpropyl]amino}methyl)phenyl]-1H-indole-7-carboxamide trifluoroacetate] | ≤ 10 µM | ≥ 5.82 | 
12 | CCN(C)Cc1cc(-c2cc(C(N)=O)c3[nH]cc(C4CCN(S(=O)(=O)CC)CC4)c3c2)cs1 [Example 65, 5-(5-{[ethyl(methyl)amino]methyl}-3-thienyl)-3-[1-(ethylsulfonyl)-4-piperidinyl]-1H-indole-7-carboxamide trifluoroacetate] | ≤ 10 µM | ≥ 5.82 | 
13 | CCC1CCCN1Cc1cc(-c2cc(C(N)=O)c3[nH]cc(C4CCN(S(=O)(=O)CC)CC4)c3c2)cs1 (stereo not shown) [Example 92, 5-{5-[(2-ethyl-1-pyrrolidinyl)methyl]-3-thienyl}-3-[1-(ethylsulfonyl)-4-piperidinyl]-1H-indole-7-carboxamide] | ≤ 10 µM | ≥ 5.82 | 
14 | CCCNCc1ccc(-c2cc(C(N)=O)c3[nH]cc(C4CCN(S(=O)(=O)CC)CC4)c3c2)s1 [Example 241, 3-[1-(ethylsulfonyl)-4-piperidinyl]-5-{5-[(propylamino)methyl]-2-thienyl}-1H-indole-7-carboxamide trifluoroacetate] | ≤ 10 µM | ≥ 5.82 | 

Continued, in another order:

Row | IC50 [1] | pIC50 [2] | SMILES | inhibition at 0.3 µM [2]
15 | ≤ 10 µM | < 6.00 | CCS(=O)(=O)N1CCC(c2c[nH]c3c(C(N)=O)cc(-c4cccc(CNC(=O)c5cc6ccccc6s5)c4)cc23)CC1 [Example 363, 5-(3-{[(1-benzothien-2-ylcarbonyl)amino]methyl}phenyl)-3-[1-(ethylsulfonyl)-4-piperidinyl]-1H-indole-7-carboxamide] | 
16 | ≤ 10 µM | ≥ 5.82 | CCS(=O)(=O)N1CCC(c2c[nH]c3c(C(N)=O)cc(-c4ccc(CNC5CC5)s4)cc23)CC1 [Example 170, 5-{5-[(cyclopropylamino)methyl]-2-thienyl}-3-[1-(ethylsulfonyl)-4-piperidinyl]-1H-indole-7-carboxamide] | 
17 | ≤ 10 µM | ≥ 5.82 | CCS(=O)(=O)N1CCC(c2c[nH]c3c(C(N)=O)cc(-c4cccc(CNS(=O)(=O)c5ccc(C(C)(C)C)cc5)c4)cc23)CC1 [Example 383, 5-{3-[({[4-(1,1-dimethylethyl)phenyl]sulfonyl}amino)methyl]phenyl}-3-[1-(ethylsulfonyl)-4-piperidinyl]-1H-indole-7-carboxamide] | 
18 | ≤ 10 µM | < 6.00 | CCS(=O)(=O)N1CCC(c2c[nH]c3c(C(N)=O)cc(-c4cccc(CNS(=O)(=O)c5cc(F)ccc5C)c4)cc23)CC1 [Example 377, 3-[1-(ethylsulfonyl)-4-piperidinyl]-5-[3-({[(5-fluoro-2-methylphenyl)sulfonyl]amino}methyl)phenyl]-1H-indole-7-carboxamide] | 
19 | ≤ 10 µM |  | CCS(=O)(=O)N1CCC(c2c[nH]c3c(C(N)=O)cc(-c4cc(F)cc(CNCc5ccco5)c4)cc23)CC1 [Example 328, 3-[1-(ethylsulfonyl)-4-piperidinyl]-5-(3-fluoro-5-{[(2-furanylmethyl)amino]methyl}phenyl)-1H-indole-7-carboxamide trifluoroacetate] | 0 to 60%
20 | ≤ 10 µM | ≥ 5.82 | CCC(C)CNCc1cccc(-c2cc(C(N)=O)c3[nH]cc(C4CCN(S(=O)(=O)CC)CC4)c3c2)c1 (stereo not shown) [Example 309, 3-[1-(ethylsulfonyl)-4-piperidinyl]-5-(3-{[(2-methylbutyl)amino]methyl}phenyl)-1H-indole-7-carboxamide] | 
21 | ≤ 10 µM | ≥ 5.82 | CC[C@H](C)CNCc1cc(F)cc(-c2cc(C(N)=O)c3[nH]cc(C4CCN(S(=O)(=O)CC)CC4)c3c2)c1 [Example 318, 3-[1-(ethylsulfonyl)-4-piperidinyl]-5-[3-fluoro-5-({[(2S)-2-methylbutyl]amino}methyl)phenyl]-1H-indole-7-carboxamide trifluoroacetate] | 
22 | ≤ 10 µM | ≥ 5.82 | CCS(=O)(=O)N1CCC(c2c[nH]c3c(C(N)=O)cc(-c4ccc5c(c4)CNCC5)cc23)CC1 [Example 37, 3-[1-(ethylsulfonyl)-4-piperidinyl]-5-(1,2,3,4-tetrahydro-7-isoquinolinyl)-1H-indole-7-carboxamide trifluoroacetate] | 
23 | ≤ 10 µM | ≥ 5.82 | CCS(=O)(=O)N1CCC(c2c[nH]c3c(C(N)=O)cc(-c4cccc(CN[C@H](C)C(C)(C)C)c4)cc23)CC1 [Example 311, 3-[1-(ethylsulfonyl)-4-piperidinyl]-5-[3-({[(1R)-1,2,2-trimethylpropyl]amino}methyl)phenyl]-1H-indole-7-carboxamide] | 
